Compound: C[C@@]1(C(=O)Nc2ccc(F)nc2)CCCN1c1nc(Nc2cc(C3CC3)n[nH]2)c2cccn2n1 + C[C@@H](Oc1cc(-c2cnn(C3CCNCC3)c2)cnc1N)c1c(Cl)ccc(F)c1Cl [Crizotinib] (partner 1 µM)
Assay: relative viability (nuclei count vs DMSO), 5 days (fraction); higher = more cells survive
Conditions: first compound 0.04 µM
Method in brief: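 Lung cancer cell lines in 1536-well plates were dosed by pin tool the day after seeding, either with one drug alone or with a fixed anchor-drug dose plus five library-drug doses (not always all listed) in √10 steps. After 5 days, cells were fixed and their nuclei stained in one step (final 0.05% Triton X-100, 1% formaldehyde, 1 ug/ml Hoechst), then counted on 4× images. Relative viability is the nuclei count in treated wells divided by that in vehicle wells. Values are medians of duplicate plates.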

Going from LU99A to BEN, the relative viability rises from 0.391 to 0.773.

First: HARA
Second: HCC-78
The relative viability of the first is higher: 1.02 for the first, 0.31 for the second.

Going from NCI-H322M to LCLC-97TM1, the relative viability falls from 1.04 to 0.184.

Compared with NCI-H2009, A-427 is lower in relative viability: 1.06 for the first, 0.853 for the second.

Going from NCI-H441 to NCI-H661, the relative viability rises from 0.603 to 0.983.

First: NCI-H1734
Second: NCI-H460
The relative viability of the first is lower: 0.554 for the first, 0.985 for the second.

Compared with NCI-H2347, SK-LU-1 is higher in relative viability: 0.706 for the first, 0.824 for the second.

Going from 201T to NCI-H1915, the relative viability falls from 0.993 to 0.932.

Going from HCC-827 to LXF-289, the relative viability falls from 0.897 to 0.837.

First: NCI-H23
Second: NCI-H647
The relative viability of the first is lower: 0.49 for the first, 1.07 for the second.

Compared with NCI-H1651, EPLC-272H is higher in relative viability: 0.762 for the first, 0.977 for the second.

NCI-H1792 and NCI-H1355 are the same in relative viability: 0.896 for the first, 0.896 for the second.

Compared with NCI-H3122, NCI-H1437 is higher in relative viability: 0.212 for the first, 0.932 for the second.

Going from NCI-H1755 to NCI-H2023, the relative viability falls from 0.919 to 0.467.

Compared with HCC-15, PC-14 is higher in relative viability: 0.749 for the first, 0.901 for the second.

Going from EKVX to LC-2-ad, the relative viability falls from 0.929 to 0.448.

Compared with NCI-H1975, RERF-LC-KJ is lower in relative viability: 0.962 for the first, 0.874 for the second.

Same assay, conditions: first compound 0.1265 µM

Compared with LU99A, BEN is higher in relative viability: 0.415 for the first, 1.19 for the second.

First: HARA
Second: HCC-78
The relative viability of the first is higher: 0.995 for the first, 0.212 for the second.

Compared with NCI-H322M, LCLC-97TM1 is lower in relative viability: 0.75 for the first, 0.186 for the second.

Going from NCI-H2009 to A-427, the relative viability falls from 1.01 to 0.848.

Compared with NCI-H441, NCI-H1734 is lower in relative viability: 0.704 for the first, 0.51 for the second.

Compared with NCI-H460, NCI-H2347 is higher in relative viability: 0.699 for the first, 0.75 for the second.

Compared with SK-LU-1, 201T is higher in relative viability: 0.875 for the first, 0.943 for the second.

Compared with NCI-H1915, HCC-827 is higher in relative viability: 0.874 for the first, 0.899 for the second.

Going from LXF-289 to NCI-H23, the relative viability falls from 0.806 to 0.292.

Going from NCI-H647 to NCI-H1651, the relative viability falls from 1.03 to 0.896.

First: EPLC-272H
Second: NCI-H1792
The relative viability of the first is higher: 0.857 for the first, 0.677 for the second.

Going from NCI-H1355 to NCI-H3122, the relative viability falls from 0.824 to 0.2.

First: NCI-H1437
Second: NCI-H1755
The relative viability of the first is lower: 0.714 for the first, 0.793 for the second.

Going from NCI-H2023 to HCC-15, the relative viability rises from 0.424 to 0.63.

First: PC-14
Second: EKVX
The relative viability of the first is lower: 0.806 for the first, 0.862 for the second.

First: LC-2-ad
Second: NCI-H1975
The relative viability of the first is lower: 0.387 for the first, 0.929 for the second.

RERF-LC-KJ gave a relative viability of 0.733.

Same assay, conditions: first compound 0.4 µM

First: LU99A
Second: BEN
The relative viability of the first is lower: 0.39 for the first, 0.59 for the second.

Compared with HARA, HCC-78 is lower in relative viability: 1.21 for the first, 0.216 for the second.

Compared with NCI-H322M, LCLC-97TM1 is lower in relative viability: 0.613 for the first, 0.12 for the second.

Going from NCI-H2009 to A-427, the relative viability falls from 0.966 to 0.674.

Going from NCI-H441 to NCI-H661, the relative viability rises from 0.553 to 1.01.

Going from NCI-H1734 to NCI-H460, the relative viability rises from 0.358 to 0.639.

With NCI-H2347 the relative viability was 0.629.
